Assay: Human HepG2 cell viability assay in 384 well format
Assay type: toxicity, cell-based
Design: dose 125 nL, time 70.5 hour; concentration not given beside the values
Settings: HepG2 cells, read-out: Inhibition

Row | SMILES | cytotoxicity at 70.5 h
1 | COc1cccc(F)c1-c1c[nH]c(C)n1 | 11.7%
2 | O=C(c1cnc(Nc2ccccc2)nc1)N1CCS(=O)(=O)CC1 | -8.85%
3 | CNC(=O)Cn1c(-c2ccco2)nn(-c2ccccc2OC)c1=O | 9.58%
4 | O=C(c1ccc(C2CCCO2)s1)N1CCOCC1 (configuration not stated) | -5.89%
5 | O=C(NCc1cn2c(n1)SCC2)c1ccc(CN2CCCCC2)cc1 | 2.13%
6 | O=C1NC2(CCN(C/C=C/c3ccccc3)CC2)CC1c1ccccc1 (configuration not stated) | 10.6%
7 | Cc1cc2nc(C(C)C)cc(NCCNc3ncccc3C)n2n1 | 12.1%
8 | CN(C)c1nc2c(c(N3CCC4(CC3)CNC(=O)C4)n1)CCCC2 | -3.91%
9 | CC(C)c1nc(CCN(C)C(=O)C2COc3ccccc3C2)no1 (configuration not stated) | -3.01%
10 | CCc1noc(C)c1C(=O)N1C[C@H](NS(C)(=O)=O)[C@@H](C2CC2)C1 | -3.78%
11 | CCc1cc(N2CCC(n3cc(C(=O)NCC(C)C)nn3)CC2)ncn1 | 0.723%
12 | N[C@@H]1c2ccccc2C2(CCN(C(=O)c3ccccc3O)CC2)[C@H]1O | -6.11%
13 | c1ccc(Oc2cccc(OC34CCCN(CC3)C4)c2)cc1 (configuration not stated) | -12%
14 | Fc1ccc(CCC2CCCN(Cc3c[nH]cn3)C2)c(F)c1 (configuration not stated) | -3.29%
15 | NC(=O)c1ccc(OCCCN2C[C@H](C3CC3)[C@@H](N)C2)cc1 | -5.8%
16 | N#Cc1c(C2CC2)cc(-c2ccc(F)c(F)c2)nc1N | -3.46%
17 | CNS(=O)(=O)CCNC(=O)[C@@]12CNC[C@@H]1CN(C1CCCC1)C2 | -0.951%
18 | COCC(=O)N1CCc2cccc(S(=O)(=O)N3CCN(C)CC3)c2C1 | -2.39%
19 | O=C1CCC(CCC(=O)N2CCCC2c2nccs2)=NN1 (configuration not stated) | 8.6%
20 | CCCN1CCC(Cc2noc(-c3cc4cccnc4nc3C)n2)CC1 | 0.578%
21 | CC(O)c1cccc(N2CCC3(CC2)Nc2ccccc2NC3=O)n1 (configuration not stated) | 21.3%

Row | SMILES | cytotoxicity at 70.5 h
22 | CSc1nccc(N2CCN(C)C3(CCC(=O)N(CC4CC4)CC3)C2)n1 (configuration not stated) | 1.61%
23 | O=C(c1cnccn1)N1C[C@@H]2CC[C@H](C1)N(C(=O)CCc1ccsc1)C2 | -0.591%
24 | CCc1c(C)nc(C)nc1N1CCC(NCCSc2nnnn2C)CC1 | -6.49%
25 | Cc1c(C(=O)NCC2CCN(Cc3c[nH]cn3)C2)[nH]c2ccccc12 (configuration not stated) | 8.7%
26 | c1cncc(NCCCNC2CCSC2)c1 (configuration not stated) | -3.16%
27 | CCCn1cc(-c2ccnc(NC3CCc4ccccc43)n2)c(C)n1 (configuration not stated) | 4.9%
28 | COc1ccc(C(=O)N2CC(c3ccncc3)C2)c(OC)c1OC | -5.75%
29 | Cc1cc(C)n(C2CCCN(C(=O)c3ccc4c(c3)COC4)C2)n1 (configuration not stated) | 1.09%
30 | Cc1cc(C)n(CC2CCCN2C(=O)c2cccn3ccnc23)n1 (configuration not stated) | -1.92%
31 | Cc1nc(C)n(C2CCCN(C(=O)c3ccc(O)nc3)C2)n1 (configuration not stated) | -5.29%
32 | CC(C)=CCN1CCN(Cc2nccn2C)C(C)C1 (configuration not stated) | 22%
33 | CCc1nc(C2CCCN2C(=O)c2ccc(N(C)C)nn2)no1 (configuration not stated) | -0.946%
34 | Cc1cc(C(=O)N2CCCC2c2noc(C(C)C)n2)c(C)o1 (configuration not stated) | -3.94%
35 | c1cnn(CC2CCCCN2c2ncnc3ccsc23)c1 (configuration not stated) | 18.2%
36 | CC(=O)N(Cc1ncc(C(C)C)o1)C1CCN(Cc2cc(C)no2)C1 (configuration not stated) | -4.1%
37 | CC(=O)N(Cc1ncc(C(C)C)o1)C1CCN(Cc2cc(C)on2)C1 (configuration not stated) | -6.93%
38 | Cc1nc(CN2CCCC2c2noc(C3CC3)n2)oc1C (configuration not stated) | -9.58%
39 | c1cnc(-c2nc(CN3CCCC(N4CCCC4)C3)cs2)nc1 (configuration not stated) | -3.36%
40 | CCN(CC)CC1CCN(C(=O)CCn2cccn2)CC1 | -1.21%
41 | COc1cccc(CC(=O)N2CCC(NCc3c[nH]nc3C)CC2)c1 | -4.19%
42 | COC1CCN(C(=O)CCn2cccn2)CC1 | -8.03%

Row | SMILES | cytotoxicity at 70.5 h
43 | CCCC1CCCN(Cc2csc(-c3ncccn3)n2)CC1 (configuration not stated) | -1.51%
44 | Cc1nc(C2CCCN2Cc2nc(C3CC3)no2)no1 (configuration not stated) | -2.5%
45 | CC(=O)NC1CCCN(Cc2csc(-c3ncccn3)n2)C1 (configuration not stated) | 18.7%
46 | CC(=O)NCCNC(=O)c1sc(-c2ccc(Cl)cc2)nc1C | -4.15%
47 | COC(=O)CNC(=O)c1sc(-c2ccc(Cl)s2)nc1C | -3.49%
48 | O=C(Nc1ccc(CCN2CCOCC2)cc1)C1CC1 | -4.46%
49 | CCN1CCN(C(=O)c2ccc(Cn3ccccc3=O)o2)CC1 | -9.18%
50 | Cc1nc(-c2ccc(Cl)s2)sc1C(=O)NCCCC(N)=O | -4.42%
51 | O=C(NCc1csc(Br)c1)N1CCC(O)CC1 | -4.25%
52 | NC(=O)C1CCN(Cc2csc(-c3ncccn3)n2)CC1 | 18.7%
53 | Cc1ccc(-c2nc(C(=O)N3CCCC(C(N)=O)C3)cs2)c(C)c1 (configuration not stated) | -8.34%
54 | Cc1ncc2c(n1)CN(Cc1nnc(-c3ccccc3)o1)CC2 | -7.67%
55 | c1cncc(-c2noc(CNC3CCc4ncnn4C3)n2)c1 (configuration not stated) | -5.95%
56 | c1csc(-c2noc(CNC3CCc4ncnn4C3)n2)c1 (configuration not stated) | -8.26%
57 | CCC(=O)N1CCN(C(=O)Cn2cccn2)CC1 | -4.66%
58 | O=C(Nc1ccc(CCN2CCC(O)CC2)cc1)C1CCCOC1 (configuration not stated) | -3.52%
59 | Cc1ccc(CCC(=O)N2CCOCC2c2ncon2)c(C)c1 (configuration not stated) | 13.3%
60 | c1ncn(CC2CN(Cc3nc(C4CC4)no3)CCO2)n1 (configuration not stated) | 17.2%
61 | CN(C)CC1CN(Cc2nc(-c3ccccn3)no2)CCO1 (configuration not stated) | 16.4%
62 | CC(C)c1nc(CN2CCOC(Cn3cncn3)C2)no1 (configuration not stated) | -8.23%
63 | CC(NC(=O)NCCCN1CCCC1=O)c1nncn1C (configuration not stated) | -9.31%

Row | SMILES | cytotoxicity at 70.5 h
64 | CC(NC(=O)NCCCN1CCc2ccccc2C1)c1nncn1C (configuration not stated) | 7.19%
65 | CS(=O)(=O)NCCC(=O)Nc1cnn(-c2ccccc2Cl)c1 | -11.9%
66 | CCCc1nc(C(C)(C)NC(=O)C2CC(=O)N(CCOC)C2)no1 (configuration not stated) | -10.7%
67 | CCCc1nc(C(C)(C)NC(=O)C2CC(=O)N(C3CC3)C2)no1 (configuration not stated) | -6.42%
68 | CC(NC(=O)NCCCN1CCCCCC1=O)c1nncn1C (configuration not stated) | 10.2%
69 | COc1c(CNCCNC(=O)c2ccc(C)cc2)c(C(C)C)nn1C | -8.14%
70 | CCOc1cc(C)nc(N2CCN(C(=O)c3ccncc3)CC2)n1 | 5.92%
71 | CCOc1cc(C)nc(N2CCN(C(=O)CN(C)C3CC3)CC2)n1 | -9.22%
72 | CCOc1cc(C)nc(N2CCN(C(=O)c3cc(C)on3)CC2)n1 | -1.38%
73 | CCOc1cc(C)nc(N2CCN(C(=O)c3csnn3)CC2)n1 | -12.5%
74 | c1ccc(Cc2noc(CN3CCOC(Cn4cncn4)C3)n2)cc1 (configuration not stated) | 12%
75 | Cc1cc(C(=O)N2CCCC(c3cc(C(F)(F)F)[nH]n3)C2)[nH]n1 (configuration not stated) | 3.57%
76 | Cc1cc(C(=O)N2CCCC(c3cc(C(F)(F)F)[nH]n3)C2)on1 (configuration not stated) | -4.58%
77 | Cc1ccc(C(=O)NS(=O)(=O)c2c(Cl)cccc2Cl)c(=O)[nH]1 | -5.05%
78 | Cc1ccc(C(=O)NS(=O)(=O)c2ccccc2Br)c(=O)[nH]1 | -7.74%
79 | Cn1c(C2CC2)nc2c1CCN(Cc1nc(-c3ccsc3)no1)C2 | -10.5%
80 | Cc1[nH]ncc1C(=O)N1CCCC(c2ccn[nH]2)C1 (configuration not stated) | -12.2%
81 | COc1ccc(CCN(C)C2CCCN(Cc3noc(C)n3)C2)cc1 (configuration not stated) | 25%
82 | O=C(CN1CCCC1c1noc(C2CC2)n1)NCCc1ccsc1 (configuration not stated) | 4.35%

From ChEMBL document CHEMBL3507680, “University of Dundee, Gates Library screen for HepG2 cell viability”
